Results reported in patent US20050197350A1, “Novel quinoline, tetrahydroquinazoline, and pyrimidine derivatives and methods of treatment related to the use thereof” (TAISHO PHARMACEUTICAL CO., LTD., priority 2003, published 2005).

Each molecule was assayed on MCH receptors (assay: MCH receptor activity class (method not given)). Details: MCH receptor activity class 1-3 (percent of control at 10^-7 M or IC50).
In the case of `CN(C)c1nc(N[C@H]2CC[C@@H](CNC(=O)Nc3c(Br)cc(Br)cc3Br)CC2)nc2c1CCCC2` [compound 2462], the class is reported as 1 (Class 1: The value of percent of control at 10^−7 M was less than 40% or the value of IC50 was less than 50 nM.).

Same assay, conditions: MCH receptor; class by percent of control at 10^-7 M or IC50
In the case of `CN(C)c1nc(N[C@H]2CC[C@@H](NC(=S)Nc3ccc(SC(F)(F)F)cc3)CC2)nc2c1CCCC2` [compound 1990], the class is reported as 3 (Class 3 The value of percent of control at 10^−7 M was more than 60% or the value of IC50 was more than 200 nM.).
In the case of `CN(C)c1cc(N[C@H]2CC[C@@H](CNC(=O)Cc3ccc(Cl)cc3)CC2)nc2ccccc12` [compound 155], the class is reported as 3 (Class 3 The value of percent of control at 10^−7 M was more than 60% or the value of IC50 was more than 200 nM.).
`CN(C)c1nc(N[C@H]2CC[C@@H](NC(=S)NCc3cccc(F)c3)CC2)nc2c1CCCC2` [compound 2043] was tested, and the class was 3 (Class 3 The value of percent of control at 10^−7 M was more than 60% or the value of IC50 was more than 200 nM.).

Same assay, conditions: activity class 1-3: percent of control at 10^-7 M or IC50
`CN(C)c1nc(N[C@H]2CC[C@@H](NC(=O)Nc3cccc4ccccc34)CC2)nc2c1CCCC2` [compound 1700] was tested, and the class was 2 (Class 2: The value of percent of control at 10^−7 M was from 40% to 60% or the value of IC′50 was from 50 nM to 200 nM.).

Same assay, conditions: activity class per percent of control at 10^-7 M or IC50
For `CN(C)c1nc(N[C@H]2CC[C@@H](CNC(=O)/C=C/c3cccc([N+](=O)[O-])c3)CC2)nc2c1CCCC2` [compound 1070], the class was 2 (Class 2: The value of percent of control at 10^−7 M was from 40% to 60% or the value of IC′50 was from 50 nM to 200 nM.).
In the case of `CN(C)c1nc(N[C@H]2CC[C@@H](NC(=O)c3ccccc3COc3ccccc3)CC2)nc2c1CCCC2` [compound 1036], the class is reported as 3 (Class 3 The value of percent of control at 10^−7 M was more than 60% or the value of IC50 was more than 200 nM.).
For `COc1cc([N+](=O)[O-])ccc1C(=O)N[C@H]1CC[C@@H](Nc2nc3c(c(N(C)C)n2)CCCC3)CC1` [compound 1047], the class was 2 (Class 2: The value of percent of control at 10^−7 M was from 40% to 60% or the value of IC′50 was from 50 nM to 200 nM.).

Same assay, conditions: class 1-3 by percent of control at 10^-7 M or IC50
`CN(C)c1nc(N[C@H]2CC[C@@H](NC(=O)c3ccc(F)c(F)c3F)CC2)nc2c1CCCC2` [compound 560] was tested, and the class was 3 (Class 3 The value of percent of control at 10^−7 M was more than 60% or the value of IC50 was more than 200 nM.).
For `CN(C)c1nc(N[C@H]2CC[C@@H](CNC(=O)c3cc(F)c(Cl)cc3Cl)CC2)nc2c1CCCC2` [compound 601], the class was 3 (Class 3 The value of percent of control at 10^−7 M was more than 60% or the value of IC50 was more than 200 nM.).
For `COc1cc(COC(=O)N[C@H]2CC[C@@H](Nc3nc4c(c(N(C)C)n3)CCCC4)CC2)c([N+](=O)[O-])cc1OC` [compound 555], the class was 3 (Class 3 The value of percent of control at 10^−7 M was more than 60% or the value of IC50 was more than 200 nM.).
With `CN(C)c1nc(N[C@H]2CC[C@@H](NC(=O)c3ccc([N+](=O)[O-])o3)CC2)nc2c1CCCC2` [compound 547] the class was 1 (Class 1: The value of percent of control at 10^−7 M was less than 40% or the value of IC50 was less than 50 nM.).

Same assay, conditions: class by percent of control at 10^-7 M or IC50
For `CN(C)c1ccnc(N[C@H]2CC[C@@H](NC(=O)c3cccc(Oc4ccccc4)c3)CC2)n1` [compound 871], the class was 2 (Class 2: The value of percent of control at 10^−7 M was from 40% to 60% or the value of IC′50 was from 50 nM to 200 nM.).
In the case of `CN(C)c1ccnc(N[C@H]2CC[C@@H](NC(=O)C3CCCC[C@H]3C(=O)c3ccccc3)CC2)n1` (stereo partly drawn) [compound 832], the class is reported as 3 (Class 3 The value of percent of control at 10^−7 M was more than 60% or the value of IC50 was more than 200 nM.).
With `COc1ccc2ccccc2c1CNC[C@H]1CC[C@@H](Nc2nc3c(c(N(C)C)n2)CCCC3)CC1` [compound 1370] the class was 3 (Class 3 The value of percent of control at 10^−7 M was more than 60% or the value of IC50 was more than 200 nM.).
With `CN(C)c1nc(N[C@H]2CC[C@@H](CNC(=O)c3cc(F)ccc3Cl)CC2)nc2c1CCCC2` [compound 660] the class was 3 (Class 3 The value of percent of control at 10^−7 M was more than 60% or the value of IC50 was more than 200 nM.).
With `CN(C)c1cc(N[C@H]2CC[C@@H](CNC(=O)c3c(F)cccc3C(F)(F)F)CC2)nc2ccccc12` [compound 230] the class was 3 (Class 3 The value of percent of control at 10^−7 M was more than 60% or the value of IC50 was more than 200 nM.).
`CN(C)c1ccnc(N[C@H]2CC[C@@H](NC(=O)c3ccc(F)c(Cl)c3)CC2)n1` [compound 291, 3-chloro-N-(cis-4-{[4-(dimethylamino)pyrimidin-2-yl]amino}cyclohexyl)-4-fluorobenzamide] was tested, and the class was 1 (Class 1: The value of percent of control at 10^−7 M was less than 40% or the value of IC50 was less than 50 nM.).
For `CN(C)c1ccnc(N[C@H]2CC[C@@H](NC(=O)c3ccc(I)cc3)CC2)n1` [compound 259], the class was 3 (Class 3 The value of percent of control at 10^−7 M was more than 60% or the value of IC50 was more than 200 nM.).
With `CN(C)c1ccnc(N[C@H]2CC[C@@H](NC(=O)c3ccc(-c4cccc([N+](=O)[O-])c4)o3)CC2)n1` [compound 902, N-(cis-4-{[4-(dimethylamino)pyrimidin-2-yl]amino}cyclohexyl)-5-(3-nitrophenyl)-2-furamide] the class was 2 (Class 2: The value of percent of control at 10^−7 M was from 40% to 60% or the value of IC′50 was from 50 nM to 200 nM.).
`CN(C)c1ccnc(N[C@H]2CC[C@@H](CNCc3ccc(N(C)CCC#N)cc3)CC2)n1` [compound 1323] was tested, and the class was 2 (Class 2: The value of percent of control at 10^−7 M was from 40% to 60% or the value of IC′50 was from 50 nM to 200 nM.).
For `CN(C)c1nc(N[C@H]2CC[C@@H](CNC(=O)Nc3ccc(F)c(Cl)c3)CC2)nc2c1CCCC2` [compound 2496], the class was 3 (Class 3 The value of percent of control at 10^−7 M was more than 60% or the value of IC50 was more than 200 nM.).
In the case of `CN(C)c1ccnc(N[C@H]2CC[C@@H](NC(=O)C(CC(=O)c3ccc(C(C)(C)C)cc3)c3cn(C)c4ccccc34)CC2)n1` (relative stereo) [compound 861], the class is reported as 3 (Class 3 The value of percent of control at 10^−7 M was more than 60% or the value of IC50 was more than 200 nM.).
In the case of `COC(=O)[C@H](CCSC)NC(=O)N[C@H]1CC[C@@H](Nc2cc(N(C)C)c3ccccc3n2)CC1` (relative stereo) [compound 2129], the class is reported as 3 (Class 3 The value of percent of control at 10^−7 M was more than 60% or the value of IC50 was more than 200 nM.).
With `CN(C)c1nc(N[C@H]2CC[C@@H](CNC(=O)c3c(Cl)cc(Cl)cc3Cl)CC2)nc2c1CCCC2` [compound 668, 2,4,6-trichloro-N-[(cis-4-{[4-(dimethylamino)-5,6,7,8-tetrahydroquinazolin-2-yl]amino}cyclohexyl)methyl]benzamide] the class was 1 (Class 1: The value of percent of control at 10^−7 M was less than 40% or the value of IC50 was less than 50 nM.).
`CN(C)c1ccnc(N[C@H]2CC[C@@H](CNC(=O)CSc3ccccc3)CC2)n1` [compound 408] was tested, and the class was 3 (Class 3 The value of percent of control at 10^−7 M was more than 60% or the value of IC50 was more than 200 nM.).
For `Cc1cc(C(=O)N[C@H]2CC[C@@H](Nc3nccc(N(C)C)n3)CC2)n(C)n1` [compound 321], the class was 3 (Class 3 The value of percent of control at 10^−7 M was more than 60% or the value of IC50 was more than 200 nM.).
For `CN(C)c1cc(N[C@H]2CC[C@@H](NC(=O)c3ccccc3CCc3ccccc3)CC2)nc2ccccc12` [compound 732], the class was 3 (Class 3 The value of percent of control at 10^−7 M was more than 60% or the value of IC50 was more than 200 nM.).
For `CC(Oc1ccccc1)C(=O)N[C@H]1CC[C@@H](Nc2nccc(N(C)C)n2)CC1` (relative stereo) [compound 267], the class was 3 (Class 3 The value of percent of control at 10^−7 M was more than 60% or the value of IC50 was more than 200 nM.).
For `CN(C)c1nc(N[C@H]2CC[C@@H](NC(=O)CCc3ccccc3O)CC2)nc2c1CCCC2` [compound 955], the class was 2 (Class 2: The value of percent of control at 10^−7 M was from 40% to 60% or the value of IC′50 was from 50 nM to 200 nM.).
In the case of `CN(C)c1nc(N[C@H]2CC[C@@H](CNCc3cc(Cl)cc(Cl)c3)CC2)nc2c1CCCC2` [compound 1429], the class is reported as 3 (Class 3 The value of percent of control at 10^−7 M was more than 60% or the value of IC50 was more than 200 nM.).

Same assay, conditions: class by percent of control at 10^−7 M or IC50
`Cc1ccc(CNC(=O)[C@H]2CC[C@@H](Nc3nc(C)cc(N(C)C)n3)CC2)cc1` [compound 2809, cis-4-{[4-(dimethylamino)-6-methylpyrimidin-2-yl]amino}-N-(4-methylbenzyl)cyclohexanecarboxamide] was tested, and the class was 1 (Class 1: The value of percent of control at 10^−7 M was less than 40% or the value of IC50 was less than 50 nM.).
For `Cc1cccc(N(C)CC(=O)N[C@H]2CC[C@@H](Nc3ncc(C)c(N(C)C)n3)CC2)c1` [compound 2942], the class was 1 (Class 1: The value of percent of control at 10^−7 M was less than 40% or the value of IC50 was less than 50 nM.).
`Cc1cc(N(C)C)nc(NC2CCC(NC(=O)c3cccc([N+](=O)[O-])c3)CC2)n1` (stereo not drawn) [compound 2992, N-(4-{[4-(dimethylamino)-6-methylpyrimidin-2-yl]amino}cyclohexyl)-3-nitrobenzamide] was tested, and the class was 1 (Class 1: The value of percent of control at 10^−7 M was less than 40% or the value of IC50 was less than 50 nM.).
With `Cc1cnc(N[C@H]2CC[C@@H](NC(=O)C(C)c3ccc(Cl)cc3)CC2)nc1N(C)C` (relative stereo) [compound 2874, 2-(4-chlorophenyl)-N-(cis-4-{[4-(dimethylamino)-5-methylpyrimidin-2-yl]amino}cyclohexyl)propanamide] the class was 1 (Class 1: The value of percent of control at 10^−7 M was less than 40% or the value of IC50 was less than 50 nM.).
For `Cc1cc(C(=O)N[C@H]2CC[C@@H](CNc3ncc(C)c(N(C)C)n3)CC2)ccc1Br` [compound 2725, 4-bromo-N-[cis-4-({[4-(dimethylamino)-5-methylpyrimidin-2-yl]amino}methyl)cyclohexyl]-3-methylbenzamide], the class was 2 (Class 2: The value of percent of control at 10^−7 M was from 40% to 60% or the value of IC′50 was from 50 nM to 200 nM.).
